Results reported in patent US20050153870A1, “Medicinal composition for diagnosis, prevention, or therapy of multiple risk factor syndrome” (priority 2002, published 2005).
Marks after values point to notes of the source that are not given here.

Legend:
[1] = tested on: Mouse, rat, beagle dog, quail, DOCA hypertension rat; experiment: Serum cholesterol decreasing effect; type: in vivo; conditions: incl. rat and quail raised with hyperfat feed
Protocol: The quails are raised by giving a feed containing 2% cholesterol for 9 months to develop hypercholesteremia, and, in the case of the rats, mineral corticoid and saline are administered to allow them to develop heart and blood vessel disease and then hypercholesteremia.

db/db mice = experiment: Blood sugar decreasing effect in db/db mice (Example 7); type: in vivo, mouse; conditions: for Body weight / Blood sugar level: in feed for a week (MAC 0.05%, AS-103 0.05%, AR-610 0.1%, AF 0.4%, AC 0.05%); for Body weight: control group 44.6 ± 0.9; for Blood sugar level: control group 549.8 ± 21.8; for Blood sugar level, change vs control group / Body weight, change vs control group: in feed for a week, contents as in table
Protocol: (§1) Powered feed to which ascofuranone (AF) and ascochlorin (AC) as well as its derivatives, 4-0-methylascochlorin (MAC), 4-0-carboxymethylascochlorin (AS-6), and 4-0-nicotinoyl ascochlorin (AS-103) were added to feed at the proportions shown in the table, and the feed were given to db/db mice for a week and then analyzed for blood sugar decreasing effect (8 mice/group).

Rat = experiment: Glucogenesis in the liver; type: in vivo; conditions: perorally
Source text: Compounds of this series suppresses hepatic glucogenesis which is induced by administration of dexamethazon to a rat. For this reason, it antagonizes the action of glucocorticoid in vivo. The compound further has an effect of suppressing steroid diabetes characterized by polydipsia and polyurea and urine sugar excretion induced by administering cortisol to a rat. […] These facts strongly support that compounds of this series is useful in preventing and/or treating visceral fat syndrome.

Anesthetized rat = experiment: Blood pressure decreasing effect, acute test; type: in vivo; conditions: 2 mg/kg perorally
Protocol: Compounds of this series has an antihypertensive effect in various types of test animal models. The antihypertensive effect is confirmed not only in an acute test, in which arterial blood pressure of anesthetized rats and dogs is measured, but also in a chronic test using DOCA hypertensive rats, which are prepared by excising one of the kidneys and administering mineral corticoid and saline thereto, naturally-occurring hypertensive rats, which is an animal morbid model of essential hypertensive disease, and ob/ob mice, which are hereditary diabetic obese […].

Mouse = experiment: Appetite suppressing effect; type: in vivo; conditions: mouse fasted 48 hours; 1 to 2 mg/kg perorally one hour before feeding; feed given for 2 hours
Lean = experiment: Body weight and blood sugar in Lean mice (Example 7); type: in vivo, mouse; conditions: for Body weight / Blood sugar level: in feed for a week (MAC 0.05%, AS-103 0.05%, AR-610 0.1%, AF 0.4%, AC 0.05%); for Body weight: control group 20.9 ± 0.8; for Blood sugar level: control group 211.2 ± 7.8; for Blood sugar level, change vs control group / Body weight, change vs control group: in feed for a week, contents as in table
Protocol: [The procedure below names another variant; the source lists this variant under the same test.] as §1

[2] = tested on: SHR rat of high-incidence fat deposition group; experiment: Fat deposition on the mesenteric artery; type: in vivo; conditions: perorally

Structure (SMILES)	serum cholesterol decreasing effect [1]	Body weight (db/db mice) [g]	Blood sugar level (db/db mice) [mg/dL]	Blood sugar level, change vs control group (db/db mice) [%**]	Body weight, change vs control group (db/db mice)	glucogenesis performed in the liver (Rat)	decrease of average blood pressure of the carotid artery (Anesthetized rat)	amount of feed (appetite suppressing effect) (Mouse)	Body weight (Lean) [g]	Blood sugar level (Lean) [mg/dL]	Blood sugar level, change vs control group (Lean)	Body weight, change vs control group (Lean)	fat deposition in a ring form on the mesenteric artery [2]
CC(/C=C/[C@@]1(C)[C@H](C)CCC(=O)[C@@H]1C)=C\Cc1c(O)c(Cl)c(C)c(C=O)c1O [AC, ascochlorin]	carboxymethylascochlorin, and ascofuranone exhibits an effect of decreasing serum	38.9 ± 1.8	262.1 ± 11.8	−52.3	−12.8%**	performed in the liver is suppressed.	decreases by 20 to 30 mmHg.	feed is suppressed in a dose dependent manner.	16.1 ± 0.3	184.8 ± 10.9	−12.5%**	−23.0%**	–
C/C(=C\Cc1c(O)c(Cl)c(C)c(C=O)c1O)CC/C=C(\C)[C@@H]1CC(=O)C(C)(C)O1 [AF, ascofuranone]	carboxymethylascochlorin, and ascofuranone exhibits an effect of decreasing serum	44.8 ± 1.4	385.5 ± 40.9	−29.9	ns	–	–	–	21.8 ± 0.4	161.1 ± 8.3	−23.7%**	ns	mesenteric artery, disappearance of fat deposition is accelerated.
CC(/C=C/C1(C)C(C)CCC(=O)C1C)=C\Cc1c(O)c(C=O)c(C)c(Cl)c1OC(=O)c1cccnc1 (stereo not drawn) [AS-103, 4-0-nicotinoyl ascochlorin]	–	42.0 ± 1.9	331.3 ± 45.2	−39.7	ns	–	–	–	18.4 ± 0.3	181.8 ± 7.6	−13.9%*	−12.0%**	–
